Test results: patent US10765114B2, “4-amino-6-(pyridyl and 2-substitutedphenyl)-picolinates and 6-amino-2-(pyridyl and 2-substitutedphenyl)-pyrimidine-4-carboxylates and their use as herbicides” (Dow AgroSciences LLC, priority 2013, dated 2020)

System: Key Grass and Sedge Weeds as well as Grass Crops
Experiment: Post-Emergent Test II (Table 6)
Format: in vivo
Conditions: post-emergence, 336 h, CYPSS, 70 g ai/ha, 14 days after application, read-out: Visual Growth Reduction (%) 14 Days After Application CYPSS
Procedure, shortened: (§1)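 Plants at first or second true-leaf stage, grown 7-21 days in greenhouse, were sprayed post-emergence at 187 L/ha with compounds in acetone/DMSO/water/crop oil/surfactant mixture at the high rate and ½× to 1/16× dilutions. Injury scored visually after 14 days, 0 (none) to 100% (complete kill), versus untreated plants.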

Compound | pest or weed control at 70 g/ha [%]
COc1nc(C(F)(F)F)ccc1-c1cc(N)c(Cl)c(C(=O)O)n1 [Compound 65] | 0 to 29

Same assay, conditions: post-emergence, 336 h, CYPSS, 140 g ai/ha, 14 days after application, read-out: Visual Growth Reduction (%) 14 Days After Application CYPSS

Compound | pest or weed control at 140 g/ha [%]
COc1nc(C(F)(F)F)ccc1-c1cc(N)c(Cl)c(C(=O)O)n1 [Compound 65] | 0 to 29

Same assay, conditions: post-emergence, 336 h, DIGSA: crabgrass (Digitaria sanguinalis), 70 g ai/ha, 14 days after application, read-out: Visual Growth Reduction (%) 14 Days After Application DIGSA

Compound | pest or weed control at 70 g/ha [%]
COc1nc(C(F)(F)F)ccc1-c1cc(N)c(Cl)c(C(=O)O)n1 [Compound 65] | 0 to 29

Same assay, conditions: post-emergence, 336 h, DIGSA: crabgrass (Digitaria sanguinalis), 140 g ai/ha, 14 days after application, read-out: Visual Growth Reduction (%) 14 Days After Application DIGSA

Compound | pest or weed control at 140 g/ha [%]
COc1nc(C(F)(F)F)ccc1-c1cc(N)c(Cl)c(C(=O)O)n1 [Compound 65] | 0 to 29

Same assay, conditions: post-emergence, 336 h, ECHSS, 70 g ai/ha, 14 days after application, read-out: Visual Growth Reduction (%) 14 Days After Application ECHSS

Compound | pest or weed control at 70 g/ha [%]
COc1nc(C(F)(F)F)ccc1-c1cc(N)c(Cl)c(C(=O)O)n1 [Compound 65] | 0 to 29

Same assay, conditions: post-emergence, 336 h, ECHSS, 140 g ai/ha, 14 days after application, read-out: Visual Growth Reduction (%) 14 Days After Application ECHSS

Compound | pest or weed control at 140 g/ha [%]
COc1nc(C(F)(F)F)ccc1-c1cc(N)c(Cl)c(C(=O)O)n1 [Compound 65] | 0 to 29

Same assay, conditions: post-emergence, 336 h, ORYSS (crop), 70 g ai/ha, 14 days after application, read-out: Visual Growth Reduction (%) 14 Days After Application ORYSS

Compound | pest or weed control at 70 g/ha [%]
COc1nc(C(F)(F)F)ccc1-c1cc(N)c(Cl)c(C(=O)O)n1 [Compound 65] | 0 to 29

Same assay, conditions: post-emergence, 336 h, ORYSS (crop), 140 g ai/ha, 14 days after application, read-out: Visual Growth Reduction (%) 14 Days After Application ORYSS

Compound | pest or weed control at 140 g/ha [%]
COc1nc(C(F)(F)F)ccc1-c1cc(N)c(Cl)c(C(=O)O)n1 [Compound 65] | 0 to 29

Same assay, conditions: post-emergence, 336 h, SETFA: giant foxtail (Setaria faberi), 70 g ai/ha, 14 days after application, read-out: Visual Growth Reduction (%) 14 Days After Application SETFA

Compound | pest or weed control at 70 g/ha [%]
COc1nc(C(F)(F)F)ccc1-c1cc(N)c(Cl)c(C(=O)O)n1 [Compound 65] | 0 to 29

Same assay, conditions: post-emergence, 336 h, SETFA: giant foxtail (Setaria faberi), 140 g ai/ha, 14 days after application, read-out: Visual Growth Reduction (%) 14 Days After Application SETFA

Compound | pest or weed control at 140 g/ha [%]
COc1nc(C(F)(F)F)ccc1-c1cc(N)c(Cl)c(C(=O)O)n1 [Compound 65] | 0 to 29

Same assay, conditions: post-emergence, 336 h, SORVU: grain sorghum (Sorghum vulgare), 70 g ai/ha, 14 days after application, read-out: Visual Growth Reduction (%) 14 Days After Application SORVU

Compound | pest or weed control at 70 g/ha [%]
COc1nc(C(F)(F)F)ccc1-c1cc(N)c(Cl)c(C(=O)O)n1 [Compound 65] | 0 to 29

Same assay, conditions: post-emergence, 336 h, SORVU: grain sorghum (Sorghum vulgare), 140 g ai/ha, 14 days after application, read-out: Visual Growth Reduction (%) 14 Days After Application SORVU

Compound | pest or weed control at 140 g/ha [%]
COc1nc(C(F)(F)F)ccc1-c1cc(N)c(Cl)c(C(=O)O)n1 [Compound 65] | 0 to 29

Same assay, conditions: post-emergence, 336 h, TRZSS (crop), 70 g ai/ha, 14 days after application, read-out: Visual Growth Reduction (%) 14 Days After Application TRZSS

Compound | pest or weed control at 70 g/ha [%]
COc1nc(C(F)(F)F)ccc1-c1cc(N)c(Cl)c(C(=O)O)n1 [Compound 65] | 0 to 29

Same assay, conditions: post-emergence, 336 h, TRZSS (crop), 140 g ai/ha, 14 days after application, read-out: Visual Growth Reduction (%) 14 Days After Application TRZSS

Compound | pest or weed control at 140 g/ha [%]
COc1nc(C(F)(F)F)ccc1-c1cc(N)c(Cl)c(C(=O)O)n1 [Compound 65] | 0 to 29

Same assay, conditions: post-emergence, 336 h, ZEAMX: maize, corn (Zea mays), 70 g ai/ha, 14 days after application, read-out: Visual Growth Reduction (%) 14 Days After Application ZEAMX

Compound | pest or weed control at 70 g/ha [%]
COc1nc(C(F)(F)F)ccc1-c1cc(N)c(Cl)c(C(=O)O)n1 [Compound 65] | 0 to 29

Same assay, conditions: post-emergence, 336 h, ZEAMX: maize, corn (Zea mays), 140 g ai/ha, 14 days after application, read-out: Visual Growth Reduction (%) 14 Days After Application ZEAMX

Compound | pest or weed control at 140 g/ha [%]
COc1nc(C(F)(F)F)ccc1-c1cc(N)c(Cl)c(C(=O)O)n1 [Compound 65] | 0 to 29

System: Key Broadleaf Weed and Crop Species
Experiment: Post-Emergent Test II (Table 5)
Format: in vivo
Conditions: Abutilon theophrasti, post-emergence, 336 h, ABUTH: velvetleaf (Abutilon theophrasti), application rate 70 (kg ai/ha; footnote: g ai/ha), read-out: Visual Growth Reduction (%) 14 Days After Application ABUTH
Procedure, shortened: as §1

Compound | pest or weed control at 70 g/ha [%]
COc1nc(C(F)(F)F)ccc1-c1cc(N)c(Cl)c(C(=O)O)n1 [Compound 65] | 0 to 29

Same assay, conditions: Abutilon theophrasti, post-emergence, 336 h, ABUTH: velvetleaf (Abutilon theophrasti), application rate 140 (kg ai/ha; footnote: g ai/ha), read-out: Visual Growth Reduction (%) 14 Days After Application ABUTH

Compound | pest or weed control at 140 g/ha [%]
COc1nc(C(F)(F)F)ccc1-c1cc(N)c(Cl)c(C(=O)O)n1 [Compound 65] | 0 to 29

Same assay, conditions: Amaranthus retroflexus, post-emergence, 336 h, AMARE: redroot pigweed (Amaranthus retroflexus), application rate 70 (kg ai/ha; footnote: g ai/ha), read-out: Visual Growth Reduction (%) 14 Days After Application AMARE

Compound | pest or weed control at 70 g/ha [%]
COc1nc(C(F)(F)F)ccc1-c1cc(N)c(Cl)c(C(=O)O)n1 [Compound 65] | 85 to 94

Same assay, conditions: Amaranthus retroflexus, post-emergence, 336 h, AMARE: redroot pigweed (Amaranthus retroflexus), application rate 140 (kg ai/ha; footnote: g ai/ha), read-out: Visual Growth Reduction (%) 14 Days After Application AMARE

Compound | pest or weed control at 140 g/ha [%]
COc1nc(C(F)(F)F)ccc1-c1cc(N)c(Cl)c(C(=O)O)n1 [Compound 65] | 85 to 94

Same assay, conditions: Brassica napus, post-emergence, 336 h, BRSSS: oilseed rape, canola (Brassica napus), application rate 70 (kg ai/ha; footnote: g ai/ha), read-out: Visual Growth Reduction (%) 14 Days After Application BRSSS

Compound | pest or weed control at 70 g/ha [%]
COc1nc(C(F)(F)F)ccc1-c1cc(N)c(Cl)c(C(=O)O)n1 [Compound 65] | 0 to 29

Same assay, conditions: Brassica napus, post-emergence, 336 h, BRSSS: oilseed rape, canola (Brassica napus), application rate 140 (kg ai/ha; footnote: g ai/ha), read-out: Visual Growth Reduction (%) 14 Days After Application BRSSS

Compound | pest or weed control at 140 g/ha [%]
COc1nc(C(F)(F)F)ccc1-c1cc(N)c(Cl)c(C(=O)O)n1 [Compound 65] | 0 to 29

Same assay, conditions: Chenopodium album, post-emergence, 336 h, CHEAL: lambsquarters (Chenopodium album), application rate 70 (kg ai/ha; footnote: g ai/ha), read-out: Visual Growth Reduction (%) 14 Days After Application CHEAL

Compound | pest or weed control at 70 g/ha [%]
COc1nc(C(F)(F)F)ccc1-c1cc(N)c(Cl)c(C(=O)O)n1 [Compound 65] | 0 to 29

Same assay, conditions: Chenopodium album, post-emergence, 336 h, CHEAL: lambsquarters (Chenopodium album), application rate 140 (kg ai/ha; footnote: g ai/ha), read-out: Visual Growth Reduction (%) 14 Days After Application CHEAL

Compound | pest or weed control at 140 g/ha [%]
COc1nc(C(F)(F)F)ccc1-c1cc(N)c(Cl)c(C(=O)O)n1 [Compound 65] | 0 to 29

Same assay, conditions: Euphorbia heterophylla, post-emergence, 336 h, EPHHL: wild poinsettia (Euphorbia heterophylla), application rate 70 (kg ai/ha; footnote: g ai/ha), read-out: Visual Growth Reduction (%) 14 Days After Application EPHHL

Compound | pest or weed control at 70 g/ha [%]
COc1nc(C(F)(F)F)ccc1-c1cc(N)c(Cl)c(C(=O)O)n1 [Compound 65] | 0 to 29

Same assay, conditions: Euphorbia heterophylla, post-emergence, 336 h, EPHHL: wild poinsettia (Euphorbia heterophylla), application rate 140 (kg ai/ha; footnote: g ai/ha), read-out: Visual Growth Reduction (%) 14 Days After Application EPHHL

Compound | pest or weed control at 140 g/ha [%]
COc1nc(C(F)(F)F)ccc1-c1cc(N)c(Cl)c(C(=O)O)n1 [Compound 65] | 0 to 29

Same assay, conditions: Helianthus annuus, post-emergence, 336 h, HELAN: sunflower (Helianthus annuus), application rate 70 (kg ai/ha; footnote: g ai/ha), read-out: Visual Growth Reduction (%) 14 Days After Application HELAN

Compound | pest or weed control at 70 g/ha [%]
COc1nc(C(F)(F)F)ccc1-c1cc(N)c(Cl)c(C(=O)O)n1 [Compound 65] | 45 to 59

Same assay, conditions: Helianthus annuus, post-emergence, 336 h, HELAN: sunflower (Helianthus annuus), application rate 140 (kg ai/ha; footnote: g ai/ha), read-out: Visual Growth Reduction (%) 14 Days After Application HELAN

Compound | pest or weed control at 140 g/ha [%]
COc1nc(C(F)(F)F)ccc1-c1cc(N)c(Cl)c(C(=O)O)n1 [Compound 65] | 45 to 59

Same assay, conditions: Viola tricolor, post-emergence, 336 h, VIOTR: wild pansy (Viola tricolor), application rate 70 (kg ai/ha; footnote: g ai/ha), read-out: Visual Growth Reduction (%) 14 Days After Application VIOTR

Compound | pest or weed control at 70 g/ha [%]
COc1nc(C(F)(F)F)ccc1-c1cc(N)c(Cl)c(C(=O)O)n1 [Compound 65] | 0 to 29

Same assay, conditions: Viola tricolor, post-emergence, 336 h, VIOTR: wild pansy (Viola tricolor), application rate 140 (kg ai/ha; footnote: g ai/ha), read-out: Visual Growth Reduction (%) 14 Days After Application VIOTR

Compound | pest or weed control at 140 g/ha [%]
COc1nc(C(F)(F)F)ccc1-c1cc(N)c(Cl)c(C(=O)O)n1 [Compound 65] | 0 to 29

System: not given
Experiment: not given
Conditions: not given

melting point [°C] | Compound
169 to 171 | COc1nc(C(F)(F)F)ccc1-c1cc(N)c(Cl)c(C(=O)O)n1 [Compound 65]
